# Measurements from the supplement of paper PMC11061612.
# Tests used:
# [1] = tested on: NCI-H2591 (Mesothelioma); experiment: combination Emax (second highest fraction inhibited in the dose matrix, 72 h); higher = more inhibition; extreme values may be limits of the assay
# Outline: (§1)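 Cell lines grown in DMEM/F12 or RPMI with 10% FBS were plated in 1536-well plates and held 24 hours at 37°C, 5% CO2 before 72 hours of exposure to two-drug dose matrices, with DMSO typically at 0.2%. CellTiter-Glo 2.0 luminescence gave viability, which was converted to inhibition. Vehicle wells were set to 0 and blank wells to 1. Combination Emax is the second-highest inhibition in the matrix, and Bliss excess is the observed combination effect minus the expected EA + EB − EA·EB, where EA and EB are the single-agent effects.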
# [2] = tested on: ONS-76 (Other Solid Carcinomas); experiment: as above
# Outline: as §1
# [3] = tested on: COLO-824 (Breast Carcinoma); experiment: as above
# Outline: as §1
# [4] = tested on: GI-ME-N (Neuroblastoma); experiment: as above
# Outline: as §1
# [5] = tested on: CCK-81 (Colorectal Carcinoma); experiment: as above
# Outline: as §1
# [6] = tested on: JSC-1 (B-Cell Non-Hodgkin's Lymphoma); experiment: as above
# Outline: as §1
# [7] = tested on: A549 (Lung Adenocarcinoma); experiment: as above
# Outline: as §1
# [8] = tested on: VCaP (Prostate Carcinoma); experiment: as above
# Outline: as §1
# [9] = tested on: NCI-H2066 (Squamous Cell Lung Carcinoma); experiment: as above
# Outline: as §1
# [10] = tested on: FU97 (Gastric Carcinoma); experiment: as above
# Outline: as §1
# [11] = tested on: HCC1954 (Breast Carcinoma); experiment: as above
# Outline: as §1
# [12] = tested on: 8-MG-BA (Glioblastoma); experiment: as above
# Outline: as §1
# [13] = tested on: NCI-H1650 (Lung Adenocarcinoma); experiment: as above
# Outline: as §1
# [14] = tested on: A3-KAW (B-Cell Non-Hodgkin's Lymphoma); experiment: as above
# Outline: as §1
# [15] = tested on: TT2609-C02 (Thyroid Gland Carcinoma); experiment: as above
# Outline: as §1
# [16] = tested on: NCI-H1581 (Non-Small Cell Lung Carcinoma); experiment: as above
# Outline: as §1
# [17] = tested on: KARPAS-422 (B-Cell Non-Hodgkin's Lymphoma); experiment: as above
# Outline: as §1
# [18] = tested on: TT (Thyroid Gland Carcinoma); experiment: Bliss excess, mean over the matrix (fraction); higher = more synergy
# Outline: as §1
# [19] = tested on: COLO-320-HSR (Colorectal Carcinoma); experiment: as above
# Outline: as §1
# [20] = tested on: OS-RC-2 (Kidney Carcinoma); experiment: as above
# Outline: as §1
# 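Wherever Bliss excess, mean over the matrix is given: after 72 h of two-drug dosing.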
SMILES,combination Emax [1],combination Emax [2],combination Emax [3],combination Emax [4],combination Emax [5],combination Emax [6],combination Emax [7],combination Emax [8],combination Emax [9],combination Emax [10],combination Emax [11],combination Emax [12],combination Emax [13],combination Emax [14],combination Emax [15],combination Emax [16],combination Emax [17],Bliss excess [18],Bliss excess [19],Bliss excess [20]
"COc1nnc2ccc(N3CCC(c4ccc(OCCN5CCN(C)C(=O)[C@H]5C)cc4)CC3)nn12 [AZD5153] + CC1(C)CCC(CN2CCN(c3ccc(C(=O)NS(=O)(=O)c4ccc(NCC5CCOCC5)c([N+](=O)[O-])c4)c(Oc4cnc5[nH]ccc5c4)c3)CC2)=C(c2ccc(Cl)cc2)C1 [Venetoclax] (first compound max 1 µM, 7x7, partner max 1 µM)",0.331,0.538,0.881,0.285,0.848,0.769,0.707,0.777,0.338,0.754,0.152,0.707,0.394,1,0.376,0.469,0.948,-0.0116,-0.0657,-0.0584
"COc1nnc2ccc(N3CCC(c4ccc(OCCN5CCN(C)C(=O)[C@H]5C)cc4)CC3)nn12 [AZD5153] + CCN(CCO)CCCOc1ccc2c(Nc3cc(CC(=O)Nc4cccc(F)c4)[nH]n3)ncnc2c1 [AZD2811] (first compound max 1 µM, 7x7, partner max 1 µM)",0.429,0.56,0.845,0.341,0.858,0.775,0.834,0.789,0.344,0.766,0.263,0.74,0.415,1,0.492,0.437,0.676,-0.0755,-0.0417,-0.0473
"COc1nnc2ccc(N3CCC(c4ccc(OCCN5CCN(C)C(=O)[C@H]5C)cc4)CC3)nn12 [AZD5153] + C[C@@H]1COCCN1C2=NC(=NC(=C2)C3(CC3)[S@](=N)(=O)C)C4=C5C=CNC5=NC=C4 [AZD6738] (first compound max 1 µM, 7x7, partner max 10 µM)",0.558,0.747,0.869,0.464,0.95,0.901,0.912,0.839,0.41,0.839,0.657,0.837,0.509,1,0.521,0.714,0.887,0.0167,0.0292,0.0699
"COc1nnc2ccc(N3CCC(c4ccc(OCCN5CCN(C)C(=O)[C@H]5C)cc4)CC3)nn12 [AZD5153] + Cc1c2c(nn1C)CSCc1cc(n(C)n1)CSc1cc(c3ccccc3c1)OCCCc1c(C(=O)O)n(C)c3c-2c(Cl)ccc13 [AZD5991] (first compound max 1 µM, 7x7, partner max 1 µM)",0.368,0.497,0.724,0.377,0.916,1,0.821,0.988,0.35,0.95,0.956,0.94,0.441,1,0.454,0.983,0.991,-0.0291,-0.112,-0.0106
"COc1nnc2ccc(N3CCC(c4ccc(OCCN5CCN(C)C(=O)[C@H]5C)cc4)CC3)nn12 [AZD5153] + Cn1cnc2c(F)c(Nc3ccc(Br)cc3Cl)c(C(=O)NOCCO)cc21 [Selumetinib] (first compound max 1 µM, 7x7, partner max 10 µM)",0.629,0.697,0.694,0.349,1,0.805,0.917,0.797,0.345,0.701,0.263,0.796,0.441,1,0.652,0.599,0.68,-0.0018,-0.0095,-0.0235
"Cc1c2c(nn1C)CSCc1cc(n(C)n1)CSc1cc(c3ccccc3c1)OCCCc1c(C(=O)O)n(C)c3c-2c(Cl)ccc13 [AZD5991] + C1CN(CCC1(C(=O)N[C@@H](CCO)C2=CC=C(C=C2)Cl)N)C3=NC=NC4=C3C=CN4 [Capivasertib] (first compound max 1 µM, 7x7, partner max 3 µM)",0.191,0.249,0.601,0.27,0.918,1,0.379,1,0.424,0.485,0.996,0.85,0.41,1,0.227,1,0.994,-0.0499,0.0007,-0.0596
"Cc1c2c(nn1C)CSCc1cc(n(C)n1)CSc1cc(c3ccccc3c1)OCCCc1c(C(=O)O)n(C)c3c-2c(Cl)ccc13 [AZD5991] + C=CCn1c(=O)c2cnc(Nc3ccc(N4CCN(C)CC4)cc3)nc2n1-c1cccc(C(C)(C)O)n1 [AZD1775] (first compound max 1 µM, partner max 1 µM)",0.266,0.584,0.667,0.532,0.928,1,0.425,0.916,0.256,0.436,0.978,0.906,0.548,1,0.617,1,0.965,0.007,0.045,-0.0046
"Cc1c2c(nn1C)CSCc1cc(n(C)n1)CSc1cc(c3ccccc3c1)OCCCc1c(C(=O)O)n(C)c3c-2c(Cl)ccc13 [AZD5991] + CC1(C)CCC(CN2CCN(c3ccc(C(=O)NS(=O)(=O)c4ccc(NCC5CCOCC5)c([N+](=O)[O-])c4)c(Oc4cnc5[nH]ccc5c4)c3)CC2)=C(c2ccc(Cl)cc2)C1 [Venetoclax] (first compound max 1 µM, 7x7, partner max 1 µM)",0.154,0.211,0.997,0.354,0.871,1,0.216,0.913,0.169,0.243,0.967,0.855,0.184,1,0.178,0.968,1,0.0887,0.0419,-0.0686
"Cc1c2c(nn1C)CSCc1cc(n(C)n1)CSc1cc(c3ccccc3c1)OCCCc1c(C(=O)O)n(C)c3c-2c(Cl)ccc13 [AZD5991] + CCN(CCO)CCCOc1ccc2c(Nc3cc(CC(=O)Nc4cccc(F)c4)[nH]n3)ncnc2c1 [AZD2811] (first compound max 1 µM, 7x7, partner max 1 µM)",0.265,0.386,0.815,0.354,0.875,1,0.41,0.94,0.304,0.284,0.98,0.836,0.269,1,0.456,1,0.981,-0.0735,0.0198,-0.0634
"Cc1c2c(nn1C)CSCc1cc(n(C)n1)CSc1cc(c3ccccc3c1)OCCCc1c(C(=O)O)n(C)c3c-2c(Cl)ccc13 [AZD5991] + CN(C)CCCOc1ccc(-c2ccc3ncc4c(c3c2)n(C2CCOCC2)c(=O)n4C)cn1 [AZD0156] (first compound max 1 µM, 7x7, partner max 1 µM)",0.185,0.239,0.411,0.307,0.88,1,0.323,0.913,0.234,0.318,0.978,0.586,0.2,1,0.212,0.976,0.982,-0.071,0.0531,-0.0096
"Cc1c2c(nn1C)CSCc1cc(n(C)n1)CSc1cc(c3ccccc3c1)OCCCc1c(C(=O)O)n(C)c3c-2c(Cl)ccc13 [AZD5991] + C[C@@H]1COCCN1C2=NC(=NC(=C2)C3(CC3)[S@](=N)(=O)C)C4=C5C=CNC5=NC=C4 [AZD6738] (first compound max 1 µM, 7x7, partner max 10 µM)",0.392,0.821,0.868,0.431,0.979,1,0.726,0.947,0.359,0.392,0.991,0.961,0.516,1,0.392,1,1,-0.0066,0.0363,0.0211
"Cc1c2c(nn1C)CSCc1cc(n(C)n1)CSc1cc(c3ccccc3c1)OCCCc1c(C(=O)O)n(C)c3c-2c(Cl)ccc13 [AZD5991] + C[C@@H](Nc1cc(F)cc(F)c1)c1cc(C(=O)N(C)C)cc2c(=O)cc(N3CCOCC3)oc12 [AZD8186] (first compound max 1 µM, 7x7, partner max 3 µM)",0.196,0.244,0.441,0.301,0.899,1,0.476,0.935,0.343,0.445,0.974,0.734,0.297,1,0.303,0.991,0.94,-0.0219,-0.0004,-0.0226
"Cc1c2c(nn1C)CSCc1cc(n(C)n1)CSc1cc(c3ccccc3c1)OCCCc1c(C(=O)O)n(C)c3c-2c(Cl)ccc13 [AZD5991] + Cc1cc2ncnn2cc1Nc1ncc2c(n1)n(C1CCOCC1)c(=O)n2C [AZD7648] (first compound max 1 µM, 7x7, partner max 10 µM)",0.305,0.315,0.364,0.228,0.933,1,0.461,0.94,0.299,0.293,0.992,0.646,0.168,1,0.205,1,1,-0.0112,-0.0184,-0.068
